Data as given in publication PMC9929129, “Towards Translation of PqsR Inverse Agonists: From In Vitro Efficacy Optimization to In Vivo Proof‐of‐Principle” (Advanced Science, 2023).
In brackets after ≈: the same amount, converted by molar mass. Where two headings read alike, the source gives them in different places.

What was measured:
[1] = tested on: Pseudomonas aeruginosa PA14; test: Pyocyanin assay in Pseudomonas aeruginosa; assay type: cell-based; conditions: PA14, 16 h, read-out: IC50 Pyocyanin
Procedure: 1.2.2 Pyocyanin assay in Pseudomonas aeruginosa
Inhibition of pyocyanin biosynthesis of compounds was measured spectrophotometrically as previously described.[2] Pseudomonas aeruginosa PA14 was grown in rich medium for 16 h under agitation with and without compound. Pyocyanin was extracted from cultures with chloroform, then re-extracted with 0.2 M HCl and quantified photometrically (520 nm). IC50 values were determined from dose-response curves of compounds using at least six different concentrations and fitting with non-linear regression analysis (OriginPro 2017–2020, Originlab Corporation). […]

[2] = Metabolic stability in mouse liver microsomes (MLM)
Procedure: 1.3.2 Metabolic-Stability Tests in Mouse Liver Microsomes (MLM).
Phase I metabolic stability was evaluated by incubating the compound (1 μM) with 0.5 mg/mL MLM (Corning) and 1 mM NADPH at 37 °C for 0, 5, 10, 15 and 30 min. The enzymatic activity of the MLM was determined by measuring the metabolic stability of Verapamil, Diphenhydramine and Benzydamine (1 μM each).
The half-life (t1/2) was determined by analyzing the concentrations of the compounds at the different time points by HPLC-MS/MS.

[3] = Kinetic turbidimetric aqueous solubility; conditions: PBS buffer, kinetic from dmso stock
[4] = tested on: Bronchiectasis clinical isolates, PA14 and PAO1; test: Antimicrobial minimal inhibitory concentrations (MIC), microdilution
[5] = molecular target: T1, PqsR (Pseudomonas aeruginosa, UniProt Q9I4X0); conditions: cited from earlier work
T1 construct: expressed in transfected cells; host or cells: Escherichia coli DH5α with plasmid pEAL08-2
T1 sequence (Q9I4X0 whole entry): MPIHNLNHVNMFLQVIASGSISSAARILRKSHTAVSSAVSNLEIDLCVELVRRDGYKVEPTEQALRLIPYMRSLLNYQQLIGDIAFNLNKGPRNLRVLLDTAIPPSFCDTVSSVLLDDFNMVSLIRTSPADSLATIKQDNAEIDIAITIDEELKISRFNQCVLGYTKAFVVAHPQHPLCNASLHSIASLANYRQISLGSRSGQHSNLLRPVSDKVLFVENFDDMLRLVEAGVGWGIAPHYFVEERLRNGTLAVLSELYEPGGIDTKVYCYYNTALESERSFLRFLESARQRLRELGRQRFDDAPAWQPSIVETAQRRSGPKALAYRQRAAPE

[6] = tested on: Pseudomonas aeruginosa PA14; design: method as in PMID 31709767; conditions: previously published hit; read-out: IC50 Pyocyanin; cited from earlier work
[7] = strain column 1 of 16 (strain heads not assignable)

Compound	IC50 [1] [nM]	half-life at 1 μM [2] [min]	solubility kinetic at 5 min [3] [µM]	further results
FC(F)(F)c1cc(NCc2cccc(Br)c2)ccn1 [Compound 5]	71400 ± 27200	20	> 200	–
FC(F)(F)c1cc(NCc2ccc(-c3ccc(Cl)cc3)cn2)ccn1 [Compound 9]	2900 ± 3900	57	26.6 (≈ 9.68 µg/mL)	–
CC(C)Oc1ncc(-c2ncc(CNc3ccnc(C(F)(F)F)c3)cn2)cc1Cl [Compound 25]	523 ± 50	> 480	37.9 (≈ 16.1 µg/mL)	–
Fc1ccc(CNc2ccnc(C(F)(F)F)c2)cc1 [Compound 2]	176000 ± 47400	54	> 200	–
FC(F)(F)c1cc(NCc2ccccc2Br)ccn1 [Compound 6]	126000 ± 10600	4	> 200	–
FC(F)(F)c1cc(SCc2ccc(-c3ccc(Cl)nc3)cn2)ccn1 [Compound 13]	3100 ± 900	6	42.3 (≈ 16.2 µg/mL)	–
Colistin	–	–	–	MIC [4, 7]: 2 µg/mL; MIC ([4]; strain column 2 of 16): 2 µg/mL; MIC ([4]; strain column 3 of 16): 1 µg/mL; MIC ([4]; strain column 4 of 16): ≤ 0.5 µg/mL; MIC ([4]; strain column 5 of 16): 1 µg/mL; MIC ([4]; strain column 6 of 16): 2 µg/mL; MIC ([4]; strain column 7 of 16): 1 µg/mL; MIC ([4]; strain column 8 of 16): 2 µg/mL; MIC ([4]; strain column 9 of 16): 2 µg/mL; MIC ([4]; strain column 10 of 16): 1 µg/mL; MIC ([4]; strain column 11 of 16): 1 µg/mL; MIC ([4]; strain column 12 of 16): 2 µg/mL; MIC ([4]; strain column 13 of 16): 1 µg/mL; MIC ([4]; strain column 14 of 16): 1 µg/mL; MIC ([4]; strain column 15 of 16): 1 µg/mL; MIC ([4]; strain column 16 of 16): 2 µg/mL
FC(F)(F)c1cc(NCc2ccc(Br)cc2)ccn1 [Compound 4]	14400 ± 1600	61	> 200	–
FC(F)(F)c1cc(NCc2ccc(-c3ccc(Cl)cc3)cc2)ccn1 [Compound 7]	449 ± 74	> 40	10 (≈ 3.63 µg/mL)	–
FC(F)(F)c1cc(NCc2ccc(-c3ccc(Cl)cn3)cn2)ccn1 [Compound 10]	35100 ± 27500	75	> 200	–
CC(C)Oc1ccc(-c2ncc(CNc3ccnc(C(F)(F)F)c3)cn2)cc1 [Compound 22]	521 ± 300	> 85	41.7 (≈ 16.2 µg/mL)	–
FC(F)(F)c1cc(NCc2ccc(-c3ccc(Cl)cc3)nc2)ccn1 [Compound 8]	3300 ± 1300	50	38.9 (≈ 14.2 µg/mL)	–
COc1ccc(-c2ccc(CNc3ccnc(C(F)(F)F)c3)nc2)cn1 [Compound 14]	2900 ± 800	77	> 200	–
CC(C)(O/N=C(\C(=O)N[C@@H]1C(=O)N2C(C(=O)[O-])=C(C[n+]3ccccc3)CS[C@H]12)c1csc(N)n1)C(=O)O [Ceftazidim]	–	–	–	MIC [4, 7]: 2 µg/mL (≈ 3.66 µM); MIC ([4]; strain column 2 of 16): 4 µg/mL (≈ 7.32 µM); MIC ([4]; strain column 3 of 16): 2 µg/mL (≈ 3.66 µM); MIC ([4]; strain column 4 of 16): ≤ 0.5 µg/mL; MIC ([4]; strain column 5 of 16): 2 µg/mL (≈ 3.66 µM); MIC ([4]; strain column 6 of 16): 1 µg/mL (≈ 1.83 µM); MIC ([4]; strain column 7 of 16): ≤ 0.5 µg/mL; MIC ([4]; strain column 8 of 16): 4 µg/mL (≈ 7.32 µM); MIC ([4]; strain column 9 of 16): ≤ 0.5 µg/mL; MIC ([4]; strain column 10 of 16): 16 µg/mL (≈ 29.3 µM); MIC ([4]; strain column 11 of 16): ≤ 0.5 µg/mL; MIC ([4]; strain column 12 of 16): 2 µg/mL (≈ 3.66 µM); MIC ([4]; strain column 13 of 16): ≤ 0.5 µg/mL; MIC ([4]; strain column 14 of 16): 4 µg/mL (≈ 7.32 µM); MIC ([4]; strain column 15 of 16): 4 µg/mL (≈ 7.32 µM); MIC ([4]; strain column 16 of 16): 2 µg/mL (≈ 3.66 µM)
COc1ncc(-c2ccc(CNc3ccnc(C(F)(F)F)c3)nc2)cc1Cl [Compound 18]	1500 ± 200	2	42.4 (≈ 16.7 µg/mL)	–
FC(F)(F)c1cc(NCc2ccc(-c3ccc(Oc4ccccc4)nc3)cn2)ccn1 [Compound 19]	4200 ± 1100	35	25.6 (≈ 10.8 µg/mL)	–
FC(F)(F)c1cc(NCc2cnc(-c3ccc(Oc4ccccc4)cc3)nc2)ccn1 [Compound 21]	320 ± 110	32	10.9 (≈ 4.6 µg/mL)	–
FC(F)(F)c1cc(NCc2ccc(-c3ccc(Cl)nc3)cn2)ccn1 [Compound 11]	7200 ± 4600	> 480	161 (≈ 58.6 µg/mL)	–
FC(F)(F)c1cc(NCc2ccc(Cl)cc2)ccn1 [Compound 3]	19000 ± 1200	44	> 200	–
FC(F)(F)c1cc(NCc2ccc(-c3cnc(Cl)c(Cl)c3)cn2)ccn1 [Compound 17]	802 ± 200	45	76.2 (≈ 30.4 µg/mL)	–
FC(F)(F)c1cc(OCc2ccc(-c3ccc(Cl)nc3)cn2)ccn1 [Compound 12]	> 20000	74	48.1 (≈ 17.6 µg/mL)	–
FC(F)(F)c1cc(NCc2cnc(-c3ccc(C4CC4)cc3)nc2)ccn1 [Compound 23]	591 ± 70	3	16.5 (≈ 6.11 µg/mL)	–
Cc1cc(-c2ccc(CNc3ccnc(C(F)(F)F)c3)nc2)cnc1Cl [Compound 15]	1900 ± 300	< 5	112 (≈ 42.6 µg/mL)	–
FC(F)(F)c1cc(NCc2cnc(-c3ccc(Cl)c(Cl)c3)nc2)ccn1 [Compound 20]	234 ± 57	61	16.6 (≈ 6.63 µg/mL)	–
Nc1cc(NCc2ccc(F)cc2)cc(C(F)(F)F)n1 [Compound 1]	–	–	–	IC50 ([5]; read-out: IC50 PqsR, previously published hit): 2310 nM; IC50 ([5]; read-out: IC50 toward PqsR in heterologous lacZ reporter gene assay in E. coli): 2300 nM; IC50 [6]: 107000 nM
FC(F)(F)c1cc(NCc2ccc(-c3cnc(Cl)c(C(F)(F)F)c3)cn2)ccn1 [Compound 16]	2100 ± 400	384	101 (≈ 43.7 µg/mL)	–
